Target: T1, human NaV 1.8 (Homo sapiens, UniProt Q9Y5Y9)
T1 construct: expressed in transfected cells; host or cells: HEK (recombinant cell line)
Experiment: Automated whole-cell patch clamp (Qube384) voltage-clamp recordings of sodium currents in HEK-NaV1.8 cell line
Format: cell-based
Details: read-out: Potency category (human NaV 1.8 IC50)
In short: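 HEK cells expressing NaV1.8 with b3, whole-cell automated voltage clamp at room temperature or 19° C.; CsF-based internal, pH 7.4 external. State-dependent (−120 mV, V1/2 4 s, −10 mV test pulses) and 10/20 Hz 40-pulse protocols; ~12 min compound, vehicle-corrected, IC50 by 4-parameter logistic fit.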

T1 sequence (Q9Y5Y9 whole entry): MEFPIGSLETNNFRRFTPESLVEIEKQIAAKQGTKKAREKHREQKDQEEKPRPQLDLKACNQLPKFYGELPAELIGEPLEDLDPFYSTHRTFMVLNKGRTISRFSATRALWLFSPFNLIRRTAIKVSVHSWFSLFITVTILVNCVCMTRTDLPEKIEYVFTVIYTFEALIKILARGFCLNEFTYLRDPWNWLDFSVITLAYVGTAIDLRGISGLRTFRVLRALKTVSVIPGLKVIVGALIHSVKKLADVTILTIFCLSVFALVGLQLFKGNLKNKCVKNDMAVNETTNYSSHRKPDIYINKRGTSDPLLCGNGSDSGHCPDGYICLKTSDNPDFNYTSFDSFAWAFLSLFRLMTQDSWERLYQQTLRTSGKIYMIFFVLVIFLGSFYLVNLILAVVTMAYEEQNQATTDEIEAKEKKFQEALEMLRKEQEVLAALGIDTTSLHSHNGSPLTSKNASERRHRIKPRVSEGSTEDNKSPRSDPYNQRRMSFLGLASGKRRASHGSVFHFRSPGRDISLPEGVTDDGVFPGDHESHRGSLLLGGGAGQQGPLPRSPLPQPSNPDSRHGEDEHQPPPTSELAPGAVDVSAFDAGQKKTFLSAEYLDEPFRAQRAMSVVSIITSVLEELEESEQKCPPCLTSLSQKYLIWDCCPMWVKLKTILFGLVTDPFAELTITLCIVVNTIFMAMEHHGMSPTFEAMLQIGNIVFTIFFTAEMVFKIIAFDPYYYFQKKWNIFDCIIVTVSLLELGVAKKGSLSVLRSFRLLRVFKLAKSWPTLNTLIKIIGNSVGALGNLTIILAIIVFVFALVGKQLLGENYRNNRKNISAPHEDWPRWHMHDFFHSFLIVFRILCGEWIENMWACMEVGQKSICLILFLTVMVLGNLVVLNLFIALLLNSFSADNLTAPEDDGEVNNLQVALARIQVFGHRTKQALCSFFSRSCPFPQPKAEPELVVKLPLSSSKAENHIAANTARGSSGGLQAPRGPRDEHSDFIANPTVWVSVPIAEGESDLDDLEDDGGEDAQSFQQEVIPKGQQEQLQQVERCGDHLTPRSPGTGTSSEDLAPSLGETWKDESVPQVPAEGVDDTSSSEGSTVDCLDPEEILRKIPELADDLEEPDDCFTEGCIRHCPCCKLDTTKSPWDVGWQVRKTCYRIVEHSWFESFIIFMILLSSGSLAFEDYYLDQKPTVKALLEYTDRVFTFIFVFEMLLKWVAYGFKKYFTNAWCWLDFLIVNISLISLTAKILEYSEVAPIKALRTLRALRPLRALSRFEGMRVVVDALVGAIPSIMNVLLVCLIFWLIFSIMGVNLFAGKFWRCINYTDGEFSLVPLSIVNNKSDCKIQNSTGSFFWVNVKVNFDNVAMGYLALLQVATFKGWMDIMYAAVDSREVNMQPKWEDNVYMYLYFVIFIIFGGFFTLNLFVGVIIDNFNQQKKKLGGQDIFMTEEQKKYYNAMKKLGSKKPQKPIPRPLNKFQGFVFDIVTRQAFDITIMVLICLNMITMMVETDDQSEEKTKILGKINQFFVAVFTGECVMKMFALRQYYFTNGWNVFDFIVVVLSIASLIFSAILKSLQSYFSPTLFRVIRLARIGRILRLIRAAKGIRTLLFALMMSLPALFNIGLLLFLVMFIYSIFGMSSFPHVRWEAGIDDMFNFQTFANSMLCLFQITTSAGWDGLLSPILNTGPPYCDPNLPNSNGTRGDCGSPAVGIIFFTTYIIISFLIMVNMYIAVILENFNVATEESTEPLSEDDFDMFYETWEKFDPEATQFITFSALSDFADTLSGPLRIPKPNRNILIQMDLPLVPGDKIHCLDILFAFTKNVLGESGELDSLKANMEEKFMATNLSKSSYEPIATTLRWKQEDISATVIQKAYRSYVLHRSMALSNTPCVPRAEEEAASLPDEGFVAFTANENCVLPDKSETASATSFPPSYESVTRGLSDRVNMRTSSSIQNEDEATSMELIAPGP

SMILES	IC50 [nM]
Cc1c(C(C)(F)F)nn(CC23CC(C(F)(F)F)(C2)C3)c1C(=O)Nc1ccnc(S(C)(=N)=O)c1 (single isomer, unassigned) [Example 15a, 3-(1,1-difluoroethyl)-4-methyl-N-(2-(S-methylsulfonimidoyl)pyridin-4-yl)-1-((3-(trifluoromethyl)bicyclo[1.1.1]pentan-1-yl)methyl)-1H-pyrazole-5-carboxamide]	≤ 100
CC1(Cn2nc(C3CCCC3)c(C(F)(F)F)c2C(=O)Nc2ccnc(S(C)(=N)=O)c2)CC(F)(F)C1 (single isomer, unassigned) [Example 59a, 3-Cyclopentyl-1-((3,3-difluoro-1-methylcyclobutyl)methyl)-N-(2-(S-methylsulfonimidoyl)pyridin-4-yl)-4-(trifluoromethyl)-1H-pyrazole-5-carboxamide]	≤ 100
CC1(Cn2nc(C34CC(F)(C3)C4)c(C(F)F)c2C(=O)Nc2ccc(F)c(S(C)(=N)=O)c2)CC(F)(F)C1 (single isomer, unassigned) [Example 138b, 1-((3,3-Difluoro-1-methylcyclobutyl)methyl)-4-(difluoromethyl)-N-(4-fluoro-3-(S-methylsulfonimidoyl)phenyl)-3-(3-fluorobicyclo[1.1.1]pentan-1-yl)-1H-pyrazole-5-carboxamide]	≤ 100
C[S@@](=N)(=O)c1cc(NC(=O)c2c(C(F)(F)F)c(C3CC3)nn2C[C@H]2C(F)(F)C23CC3)ccn1 (single isomer, unassigned) [Example 79a, 3-cyclopropyl-1-((2,2-difluorospiro[2.2]pentan-1-yl)methyl)-N-(2-(S-methylsulfonimidoyl)pyridin-4-yl)-4-(trifluoromethyl)-1H-pyrazole-5-carboxamide]	≤ 100
CC1(Cn2nc(C3CC3)c(C(F)(F)F)c2C(=O)Nc2cccc(S(C)(=N)=O)c2)CC(F)(F)C1 (single isomer, unassigned) [Example 45b, 3-cyclopropyl-1-((3,3-difluoro-1-methylcyclobutyl)methyl)-N-(3-(S-methylsulfonimidoyl)phenyl)-4-(trifluoromethyl)-1H-pyrazole-5-carboxamide]	≤ 100
CS(=N)(=O)c1cc(NC(=O)c2c(C(F)(F)F)c(C3CC3)nn2CC2CC3(C2)CC(F)(F)C3)ccn1 (single isomer, unassigned) [Example 27b, 3-cyclopropyl-1-((6,6-difluorospiro[3.3]heptan-2-yl)methyl)-N-(2-(S-methylsulfonimidoyl)pyridin-4-yl)-4-(trifluoromethyl)-1H-pyrazole-5-carboxamide]	≤ 100
CC1(Cn2nc(C3(F)CC3)c(C(F)F)c2C(=O)Nc2ccc(F)c(S(C)(=N)=O)c2)CC(F)(F)C1 (single isomer, unassigned) [Example 133a, 1-((3,3-Difluoro-1-methylcyclobutyl)methyl)-4-(difluoromethyl)-N-(4-fluoro-3-(S-methylsulfonimidoyl)phenyl)-3-(1-fluorocyclopropyl)-1H-pyrazole-5-carboxamide]	≤ 100
CC1(Cn2nc(C3CC3)c(C(F)(F)F)c2C(=O)Nc2ccnc(S(C)(=N)=O)c2)CC(F)(F)C1 (single isomer, unassigned) [Example 1a, 3-cyclopropyl-1-((3,3-difluoro-1-methylcyclobutyl)methyl)-N-(2-(S-methylsulfonimidoyl)pyridin-4-yl)-4-(trifluoromethyl)-1H-pyrazole-5-carboxamide]	≤ 100
CC1(Cn2nc(C3CC3)c(C(F)(F)F)c2C(=O)Nc2ccnc(S(C)(=O)=NC#N)c2)CC(F)(F)C1 (single isomer, unassigned) [Example 142b, N-(2-(N-Cyano-S-methylsulfonimidoyl)pyridin-4-yl)-3-cyclopropyl-1-((3,3-difluoro-1-methylcyclobutyl)methyl)-4-(trifluoromethyl)-1H-pyrazole-5-carboxamide]	≤ 100
CC1(Cn2nc(C34CC(F)(C3)C4)c(C(F)(F)F)c2C(=O)Nc2ccc(F)c(S(C)(=N)=O)c2)CC(F)(F)C1 (single isomer, unassigned) [Example 141b, 1-((3,3-Difluoro-1-methylcyclobutyl)methyl)-N-(4-fluoro-3-(S-methylsulfonimidoyl)phenyl)-3-(3-fluorobicyclo[1.1.1]pentan-1-yl)-4-(trifluoromethyl)-1H-pyrazole-5-carboxamide]	≤ 100
CC1(Cn2nc(C3(F)CC3)c(C(F)(F)F)c2C(=O)Nc2ccc(F)c(S(C)(=N)=O)c2)CC(F)(F)C1 (single isomer, unassigned) [Example 126a, 1-((3,3-Difluoro-1-methylcyclobutyl)methyl)-N-(4-fluoro-3-(S-methylsulfonimidoyl)phenyl)-3-(1-fluorocyclopropyl)-4-(trifluoromethyl)-1H-pyrazole-5-carboxamide]	≤ 100
C[S@@](=N)(=O)c1cccc(NC(=O)c2c(C(F)(F)F)c(C3(F)CC3)nn2CC2C[C@@H]2C(F)(F)F)c1 (single isomer, unassigned) [Example 134a, 3-(1-Fluorocyclopropyl)-N-(3-(S-methylsulfonimidoyl)phenyl)-4-(trifluoromethyl)-1-(((trans)-2-(trifluoromethyl)cyclopropyl)methyl)-1H-pyrazole-5-carboxamide]	≤ 100
CC1(Cn2nc(C34CC(F)(C3)C4)c(C(F)(F)F)c2C(=O)Nc2cccc(S(C)(=N)=O)c2)CC(F)(F)C1 (single isomer, unassigned) [Example 111a, 1-((3,3-difluoro-1-methylcyclobutyl)methyl)-3-(3-fluorobicyclo[1.1.1]pentan-1-yl)-N-(3-(S-methylsulfonimidoyl)phenyl)-4-(trifluoromethyl)-1H-pyrazole-5-carboxamide]	≤ 100
CS(=N)(=O)c1cc(NC(=O)c2c(C(F)(F)F)c(C3CC3)nn2CC2(F)CC3(CCC3)C2)ccn1 (single isomer, unassigned) [Example 21a, 3-cyclopropyl-1-((2-fluorospiro[3.3]heptan-2-yl)methyl)-N-(2-(S-methylsulfonimidoyl)pyridin-4-yl)-4-(trifluoromethyl)-1H-pyrazole-5-carboxamide]	≤ 100
C[S@@](=N)(=O)c1cc(NC(=O)c2c(C(F)(F)F)c(C3CC3)nn2C[C@]2(C)C[C@@H](C(F)(F)F)C2)ccn1 (single isomer, unassigned) [Example 86c, 3-cyclopropyl-1-(((cis)-1-methyl-3-(trifluoromethyl)cyclobutyl)methyl)-N-(2-(S-methylsulfonimidoyl)pyridin-4-yl)-4-(trifluoromethyl)-1H-pyrazole-5-carboxamide]	≤ 100
CC1(Cn2nc(C(C)(C)C)c(C(F)(F)F)c2C(=O)Nc2ccnc(S(C)(=N)=O)c2)CC(F)(F)C1 (single isomer, unassigned) [Example 143b, 3-(Tert-butyl)-1-((3,3-difluoro-1-methylcyclobutyl)methyl)-N-(2-(S-methylsulfonimidoyl)pyridin-4-yl)-4-(trifluoromethyl)-1H-pyrazole-5-carboxamide]	≤ 100
C[S@@](=N)(=O)c1cccc(NC(=O)c2c(C(F)(F)F)c(C3(F)CC3)nn2CC2C[C@H]2C(F)(F)F)c1 (single isomer, unassigned) [Example 134c, 3-(1-Fluorocyclopropyl)-N-(3-(S-methylsulfonimidoyl)phenyl)-4-(trifluoromethyl)-1-(((trans)-2-(trifluoromethyl)cyclopropyl)methyl)-1H-pyrazole-5-carboxamide]	≤ 100
CC1(Cn2nc(C3(C)CC3)c(C(F)(F)F)c2C(=O)Nc2ccnc(S(C)(=N)=O)c2)CC(F)(F)C1 (single isomer, unassigned) [Example 69a, 1-((3,3-difluoro-1-methylcyclobutyl)methyl)-3-(1-methylcyclopropyl)-N-(2-(S-methylsulfonimidoyl)pyridin-4-yl)-4-(trifluoromethyl)-1H-pyrazole-5-carboxamide]	≤ 100
CS(=N)(=O)c1cc(NC(=O)c2c(C(F)(F)F)c(C3CC3)nn2CC23CCC(F)(CC2)C3)ccn1 (single isomer, unassigned) [Example 106b, 3-cyclopropyl-1-((4-fluorobicyclo[2.2.1]heptan-1-yl)methyl)-N-(2-(S-methylsulfonimidoyl)pyridin-4-yl)-4-(trifluoromethyl)-1H-pyrazole-5-carboxamide]	≤ 100
COC12CC(c3nn(CC4(C)CC(F)(F)C4)c(C(=O)Nc4ccnc(S(C)(=N)=O)c4)c3C(F)(F)F)(C1)C2 (centres unmarked) [Example 122, 1-((3,3-Difluoro-1-methylcyclobutyl)methyl)-3-(3-methoxybicyclo[1.1.1]pentan-1-yl)-N-(2-(S-methylsulfonimidoyl)pyridin-4-yl)-4-(trifluoromethyl)-1H-pyrazole-5-carboxamide]	≤ 100
C[S@](=N)(=O)c1cc(NC(=O)c2c(C(F)(F)F)c(C3CC3)nn2C[C@]2(C)C[C@H](C(F)(F)F)C2)ccn1 (single isomer, unassigned) [Example 86b, 3-cyclopropyl-1-(((trans)-1-methyl-3-(trifluoromethyl)cyclobutyl)methyl)-N-(2-(S-methylsulfonimidoyl)pyridin-4-yl)-4-(trifluoromethyl)-1H-pyrazole-5-carboxamide]	≤ 100
CS(=N)(=O)c1cc(NC(=O)c2c(C(F)(F)F)c(C3CC3)nn2CC2CCC(F)(F)C2)ccn1 (single isomer, unassigned) [Example 7a, 3-cyclopropyl-1-((3,3-difluorocyclopentyl)methyl)-N-(2-(S-methylsulfonimidoyl)pyridin-4-yl)-4-(trifluoromethyl)-1H-pyrazole-5-carboxamide]	≤ 100
CS(=N)(=O)c1cc(NC(=O)c2c(C(F)(F)F)c(C3CC3)nn2CC2CCC23CNC3)ccn1 (single isomer, unassigned) [Example 153b, 1-((2-Azaspiro[3.3]heptan-5-yl)methyl)-3-cyclopropyl-N-(2-(S-methylsulfonimidoyl)pyridin-4-yl)-4-(trifluoromethyl)-1H-pyrazole-5-carboxamide]	1000 to 10000

— patent publication US12685726B2, “Sulfoximines as inhibitors of NaV1.8” (Gruenenthal GmbH, priority 2022, dated 2026)
